Test results taken from patent US10428044B2, “3-amino-1,5,6,7-tetrahydro-4H-indol-4-ones” (Bayer Pharma Aktiengesellschaft, priority 2014, dated 2019).

Molecular target: (recombinant) catalytic domain of human Bub1 (amino acids 704-1085) (Homo sapiens (Human), UniProt O43683)
Assay: Bub1 kinase assay (TR-FRET)
Format: biochemical
Settings: ATP 10 μM final, peptide substrate 1 μM final, 60 min at 22° C., read-out: Biological Assay: Bub1 kinase assay median IC50
Method in brief: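 Readout was TR-FRET between a Eu-labeled antibody complex recognizing phosphoserine and streptavidin-XL665 on the biotinylated peptide, after EDTA stop and 1 h at 22° C. The kinase reaction ran for 60 min at 22° C. Values are means or medians of repeat tests, from 4-parameter fits normalized to enzyme-free and inhibitor-free controls.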

(recombinant) catalytic domain of human Bub1 (amino acids 704-1085), sequence (O43683 704-1085): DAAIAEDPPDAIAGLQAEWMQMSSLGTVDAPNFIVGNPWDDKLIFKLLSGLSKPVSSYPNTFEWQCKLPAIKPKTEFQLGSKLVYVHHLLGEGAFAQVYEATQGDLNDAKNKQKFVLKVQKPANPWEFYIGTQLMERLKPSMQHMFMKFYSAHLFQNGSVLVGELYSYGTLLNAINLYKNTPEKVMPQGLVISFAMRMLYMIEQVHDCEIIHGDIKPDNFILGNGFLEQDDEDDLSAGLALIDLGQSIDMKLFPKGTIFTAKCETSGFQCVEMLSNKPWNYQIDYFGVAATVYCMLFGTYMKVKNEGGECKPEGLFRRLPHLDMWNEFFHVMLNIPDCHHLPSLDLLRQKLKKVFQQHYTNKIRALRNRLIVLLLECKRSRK

Row | Structure (SMILES) | IC50 [nM]
1 | O=C(COc1ccsc1Cl)Nc1cc(-c2[nH]c3c(c2Nc2ccccc2)C(=O)CCC3)ccn1 [Example 345, 2-[(2-chlorothiophen-3-yl)oxy]-N-{4-[4-oxo-3-(phenylamino)-4,5,6,7-tetrahydro-1H-indol-2-yl]pyridin-2-yl}acetamide] | 72.5
2 | C#CCOCC(=O)Nc1cc(-c2[nH]c3c(c2Nc2ccccc2)C(=O)CCC3)ccn1 [Example 336, N-{4-[4-oxo-3-(phenylamino)-4,5,6,7-tetrahydro-1H-indol-2-yl]pyridin-2-yl}-2-(prop-2-yn-1-yloxy)acetamide] | 8.53
3 | COc1cccc(Nc2c(-c3ccncc3)[nH]c3c2C(=O)CC(C)(C)C3)c1 [Example 52, 3-[(3-methoxyphenyl)amino]-6,6-dimethyl-2-(pyridin-4-yl)-1,5,6,7-tetrahydro-4H-indol-4-one] | 99.8
4 | CC1(C)CC(=O)c2c([nH]c(-c3ccncc3)c2Nc2ccc(F)cc2)C1 [Example 11, 3-[(4-fluorophenyl)amino]-6,6-dimethyl-2-(pyridin-4-yl)-1,5,6,7-tetrahydro-4H-indol-4-one] | 16.5
5 | CCc1ccc(Nc2c(-c3ccncc3)[nH]c3c2C(=O)CC(C)(C)C3)cc1 [Example 83, 3-[(4-ethylphenyl)amino]-6,6-dimethyl-2-(pyridin-4-yl)-1,5,6,7-tetrahydro-4H-indol-4-one] | 293
6 | O=C(COc1ccccc1F)Nc1cc(-c2[nH]c3c(c2Nc2ccccc2)C(=O)CCC3)ccn1 [Example 339, 2-(2-fluorophenoxy)-N-{4-[4-oxo-3-(phenylamino)-4,5,6,7-tetrahydro-1H-indol-2-yl]pyridin-2-yl}acetamide] | 39.4
7 | O=C(COC[C@@H]1CCCCO1)Nc1cc(-c2[nH]c3c(c2Nc2ccccc2)C(=O)CCC3)ccn1 [Example 343, N-{4-[4-oxo-3-(phenylamino)-4,5,6,7-tetrahydro-1H-indol-2-yl]pyridin-2-yl}-2-[(2S)-tetrahydro-2H-pyran-2-ylmethoxy]acetamide] | 8.45
8 | CC1(C)CC(=O)c2c([nH]c(-c3cc[n+](CC(F)F)cc3)c2Nc2ccccc2)C1 [Example 192, 4-[6,6-dimethyl-4-oxo-3-(phenylamino)-4,5,6,7-tetrahydro-1H-indol-2-yl]-1-(2,2-difluoroethyl)pyridinium trifluoromethanesulfonate] | 1280
9 | CN[C@H](C)C(=O)Nc1cc(-c2[nH]c3c(c2Nc2ccccc2)C(=O)CCC3)ccn1 [Example 302, N^2-methyl-N-{4-[4-oxo-3-(phenylamino)-4,5,6,7-tetrahydro-1H-indol-2-yl]pyridin-2-yl}-D-alaninamide] | 480
10 | COC(C)C(=O)Nc1cc(-c2[nH]c3c(c2Nc2ccccc2)C(=O)CCC3)ccn1 (centres unmarked) [Example 329] | 65.4
11 | CC1(C)CC(=O)c2c([nH]c(-c3ccnc(NC(=O)C(F)F)c3)c2Nc2ccccc2)C1 [Example 166, N-{4-[6,6-dimethyl-4-oxo-3-(phenylamino)-4,5,6,7-tetrahydro-1H-indol-2-yl]pyridin-2-yl}-2,2-difluoroacetamide] | 1690
12 | CC1(C)CC(=O)c2c([nH]c(-c3ccnc(NC(=O)c4nccs4)c3)c2Nc2ccccc2)C1 [Example 505, N-{4-[6,6-dimethyl-4-oxo-3-(phenylamino)-4,5,6,7-tetrahydro-1H-indol-2-yl]pyridin-2-yl}-1,3-thiazole-2-carboxamide] | 11.1
13 | CC1(C)CC(=O)c2c([nH]c(-c3ccnc(N)c3)c2Nc2cccc(Br)c2)C1 [Example 203, 2-(2-aminopyridin-4-yl)-3-[(3-bromophenyl)amino]-6,6-dimethyl-1,5,6,7-tetrahydro-4H-indol-4-one] | 115
14 | Cc1cnc(COCC(=O)Nc2cc(-c3[nH]c4c(c3Nc3ccccc3)C(=O)CCC4)ccn2)o1 [Example 355, 2-[(5-methyl-1,3-oxazol-2-yl)methoxy]-N-{4-[4-oxo-3-(phenylamino)-4,5,6,7-tetrahydro-1H-indol-2-yl]pyridin-2-yl}acetamide] | 6.45
15 | CC1(C)CC(=O)c2c([nH]c(-c3cc(Cl)ncc3F)c2Nc2ccccc2)C1 [Example 220, 2-(2-chloro-5-fluoropyridin-4-yl)-6,6-dimethyl-3-(phenylamino)-1,5,6,7-tetrahydro-4H-indol-4-one] | 1400
16 | CS(=O)(=O)CCn1c2c(c(Nc3ccccc3)c1-c1ccncc1)C(=O)CCC2 [Example 176, 1-[2-(methylsulfonyl)ethyl]-3-(phenylamino)-2-(pyridin-4-yl)-1,5,6,7-tetrahydro-4H-indol-4-one] | 2040
17 | CCc1cccc(Nc2c(-c3ccncc3)[nH]c3c2C(=O)CC(C)(C)C3)c1 [Example 15, 3-[(3-ethylphenyl)amino]-6,6-dimethyl-2-(pyridin-4-yl)-1,5,6,7-tetrahydro-4H-indol-4-one] | 23.6
18 | O=C(Cc1ccco1)Nc1cc(-c2[nH]c3c(c2Nc2ccccc2)C(=O)CCC3)ccn1 [Example 288, 2-(furan-2-yl)-N-{4-[4-oxo-3-(phenylamino)-4,5,6,7-tetrahydro-1H-indol-2-yl]pyridin-2-yl}acetamide] | 16.7
19 | O=C(Nc1cc(-c2[nH]c3c(c2Nc2ccccc2)C(=O)CCC3)ccn1)c1cncs1 [Example 273, N-{4-[4-oxo-3-(phenylamino)-4,5,6,7-tetrahydro-1H-indol-2-yl]pyridin-2-yl}-1,3-thiazole-5-carboxamide] | 7.66
20 | CC1(C)CC(=O)c2c([nH]c(-c3ccnc4[nH]cnc34)c2Nc2ccccc2)C1 [Example 221, 2-(3H-imidazo[4,5-b]pyridin-7-yl)-6,6-dimethyl-3-(phenylamino)-1,5,6,7-tetrahydro-4H-indol-4-one] | 13.1
21 | CC1(C(=O)Nc2cc(-c3[nH]c4c(c3Nc3ccccc3)C(=O)CCC4)ccn2)CC1 [Example 228, 1-methyl-N-{4-[4-oxo-3-(phenylamino)-4,5,6,7-tetrahydro-1H-indol-2-yl]pyridin-2-yl}cyclopropanecarboxamide] | 56.7
22 | CC(C)C(=O)Nc1cc(-c2[nH]c3c(c2Nc2ccccc2)C(=O)CCC3)ccn1 [Example 230, 2-methyl-N-{4-[4-oxo-3-(phenylamino)-4,5,6,7-tetrahydro-1H-indol-2-yl]pyridin-2-yl}propanamide] | 20
23 | O=C1CCC(C(=O)Nc2cc(-c3[nH]c4c(c3Nc3ccccc3)C(=O)CCC4)ccn2)N1 (centres unmarked) [Example 311, 5-oxo-N-{4-[4-oxo-3-(phenylamino)-4,5,6,7-tetrahydro-1H-indol-2-yl]pyridin-2-yl}-prolinamide] | 40.6

Continued by falling IC50, values first:

Row | IC50 [nM] | Structure (SMILES)
24 | 1780 | CC1(C)CC(=O)c2c([nH]c(-c3ccncc3)c2Nc2cc(Cl)ccc2F)C1 [Example 87, 3-[(5-chloro-2-fluorophenyl)amino]-6,6-dimethyl-2-(pyridin-4-yl)-1,5,6,7-tetrahydro-4H-indol-4-one]
25 | 924 | O=C1CCCc2[nH]c(-c3c(F)cncc3F)c(Nc3cccc(F)c3)c21 [Example 136, 2-(3,5-difluoropyridin-4-yl)-3-[(3-fluorophenyl)amino]-1,5,6,7-tetrahydro-4H-indol-4-one]
26 | 174 | CC(=O)c1cccc(Nc2c(-c3ccncc3)[nH]c3c2C(=O)CC(C)(C)C3)c1 [Example 113, 3-[(3-acetylphenyl)amino]-6,6-dimethyl-2-(pyridin-4-yl)-1,5,6,7-tetrahydro-4H-indol-4-one]
27 | 148 | Cc1ccc(Nc2c(-c3ccncc3)[nH]c3c2C(=O)CC(C)(C)C3)cc1 [Example 54, 6,6-dimethyl-3-[(4-methylphenyl)amino]-2-(pyridin-4-yl)-1,5,6,7-tetrahydro-4H-indol-4-one]
28 | 31 | CSCC(=O)Nc1cc(-c2[nH]c3c(c2Nc2ccccc2)C(=O)CCC3)ccn1 [Example 244, 2-(methylsulfanyl)-N-{4-[4-oxo-3-(phenylamino)-4,5,6,7-tetrahydro-1H-indol-2-yl]pyridin-2-yl}acetamide]
29 | 18.4 | O=C(Nc1cc(-c2[nH]c3c(c2Nc2ccccc2)C(=O)CCC3)ccn1)c1ccsn1 [Example 276, N-{4-[4-oxo-3-(phenylamino)-4,5,6,7-tetrahydro-1H-indol-2-yl]pyridin-2-yl}-1,2-thiazole-3-carboxamide]
30 | 17.9 | O=C1CCCc2[nH]c(-c3ccncc3Cl)c(Nc3ccccc3)c21 [Example 33, 2-(3-chloropyridin-4-yl)-3-(phenylamino)-1,5,6,7-tetrahydro-4H-indol-4-one]
31 | 14.8 | CC(=O)Nc1cc(-c2[nH]c3c(c2Nc2ccccc2)C(=O)CCC3)ccn1 [Example 39, N-{4-[4-oxo-3-(phenylamino)-4,5,6,7-tetrahydro-1H-indol-2-yl]pyridin-2-yl}acetamide]
32 | 10.2 | O=C(COc1ccon1)Nc1cc(-c2[nH]c3c(c2Nc2ccccc2)C(=O)CCC3)ccn1 [Example 348, 2-(1,2-oxazol-3-yloxy)-N-{4-[4-oxo-3-(phenylamino)-4,5,6,7-tetrahydro-1H-indol-2-yl]pyridin-2-yl}acetamide]
33 | 10 | O=C1CCCc2[nH]c(-c3ccnc(NC(=O)[C@H]4C[C@@H]4F)c3)c(Nc3ccccc3)c21 [Example 250, (R,S/S,R)-2-fluoro-N-{4-[4-oxo-3-(phenylamino)-4,5,6,7-tetrahydro-1H-indol-2-yl]pyridin-2-yl}cyclopropanecarboxamide]
34 | 7.91 | Cc1nnc(COCC(=O)Nc2cc(-c3[nH]c4c(c3Nc3ccccc3)C(=O)CCC4)ccn2)s1 [Example 356, 2-[(5-methyl-1,3,4-thiadiazol-2-yl)methoxy]-N-{4-[4-oxo-3-(phenylamino)-4,5,6,7-tetrahydro-1H-indol-2-yl]pyridin-2-yl}acetamide]
35 | 6.34 | CC1(C)CC(=O)c2c([nH]c(-c3ccnc(NC(=O)[C@@H]4C[C@H]4F)c3)c2Nc2ccccc2)C1 (racemic) [Example 254, (S,R)—N-{4-[6,6-dimethyl-4-oxo-3-(phenylamino)-4,5,6,7-tetrahydro-1H-indol-2-yl]pyridin-2-yl}-2-fluorocyclopropanecarboxamide]
